Experimental findings from US10508109B2 (priority 2015, dated 2019) are described below.

Assay [1] relates to A549. Nature of the assay: Cell-based assay, anti-proliferative activity (Cell Counting Kit-8, 72 hours). Particulars: Homo sapiens, read-out: IC50 (μM) A549. The essentials:
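After compound exposure of cells in 96-well plates, growth was measured colorimetrically and converted into IC50 values.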

In assay [2] the test system is CCD-18Co. Described as above. Particulars: Homo sapiens, read-out: IC50 (μM) CCD-18Co. The essentials: (§1)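 Seed cells in 96-well plates; add serially diluted inhibitor (1.5625 to 100 micro-M plus vehicle); incubate 72 hours; quantify viable growth by CCK-8 and calculate IC50.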
In assay [3] the test system is HCT-116. The description is as above. Particulars: Homo sapiens, read-out: IC50 (μM) HCT-116. The essentials:
as §1

In assay [4] the test system is HFL1. The assay is described as above. The settings on record: Homo sapiens, read-out: IC50 (μM) HFL1. The essentials:
as §1

The test system of assay [5] is PC14. The description is as above. The settings on record: Homo sapiens, read-out: IC50 (μM) PC14. The essentials:
as §1

Assay [6] has as its target SUV39H2 (Homo sapiens (Human), UniProt Q9H5I1). Particulars: read-out: IC50 (μM) Suv 39H2 assay; enzyme assay.
Where [7] appears, read: A549 cells, 72 hours, Cell Counting Kit-8.
[8] abbreviates: CCD-18Co cells, 72 hours, Cell Counting Kit-8.
Setting [9] is: HCT-116 cells, 72 hours, Cell Counting Kit-8.
Where [10] appears, read: HFL1 cells, 72 hours, Cell Counting Kit-8.
[11] abbreviates: PC-14, PC14 cells, 72 hours, Cell Counting Kit-8.
Where [12] appears, read: A549 cells, Cell Counting Kit-8, 72 hours.
[13] abbreviates: CCD-18Co cells, Cell Counting Kit-8, 72 hours.
[14] abbreviates: HCT-116 cells, Cell Counting Kit-8, 72 hours.
[15] abbreviates: HFL1 cells, Cell Counting Kit-8, 72 hours.
Where [16] appears, read: PC-14, PC14 cells, Cell Counting Kit-8, 72 hours.

Structures can show the parent of a compound that is named as a salt. Where two headings read alike, the source gives them in different places.

Sequence of SUV39H2 (Q9H5I1 whole entry): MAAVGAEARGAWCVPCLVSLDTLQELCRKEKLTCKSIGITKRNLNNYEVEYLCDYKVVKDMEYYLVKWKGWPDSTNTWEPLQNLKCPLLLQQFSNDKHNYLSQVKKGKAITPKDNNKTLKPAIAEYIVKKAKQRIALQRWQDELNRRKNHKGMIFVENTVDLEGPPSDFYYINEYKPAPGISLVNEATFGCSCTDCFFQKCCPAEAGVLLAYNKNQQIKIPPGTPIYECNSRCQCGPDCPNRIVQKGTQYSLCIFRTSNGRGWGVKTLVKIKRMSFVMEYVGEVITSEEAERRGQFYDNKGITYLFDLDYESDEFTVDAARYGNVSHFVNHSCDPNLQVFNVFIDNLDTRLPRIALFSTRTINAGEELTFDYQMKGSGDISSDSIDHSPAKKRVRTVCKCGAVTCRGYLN

In the case of `COc1cc(OC)c(-c2cn3ccc(OC4CCN(S(=O)(=O)c5nccn5C)CC4)cc3n2)cc1Cl` [Example 288, 2-(5-chloro-2,4-dimethoxyphenyl)-7-((1-((1-methyl-1H-imidazol-2-yl)sulfonyl)piperidin-4-yl)oxy)imidazo[1,2-a]pyridine], the IC50 came to 0.8 µM in assay [1] (setting [7]); 1.5 µM in assay [2] (setting [8]); 0.98 µM in assay [3] (setting [9]); 1.7 µM in assay [4] (setting [10]); 1.2 µM in assay [5] (setting [11]); 0.0928 µM in assay [6].
Take `CCc1cc(OC)c(Cl)cc1-c1cn2ccc(N3CCNCC3)cc2n1` [Example 260, 2-(5-chloro-2-ethyl-4-methoxyphenyl)-7-(piperazin-1-yl)imidazo-[1,2-a]pyridine]: the IC50 is 6.1 µM in assay [1] (setting [7]); 3.5 µM in assay [2] (setting [8]); 3.4 µM in assay [3] (setting [9]); 3.6 µM in assay [4] (setting [10]); 3.4 µM in assay [5] (setting [11]); 0.0344 µM in assay [6].
Take `COc1cc(OC)c(-c2cn3ccc(N4CCN(S(C)(=O)=O)CC4)cc3n2)cc1Cl` [Example 169, 2-(5-chloro-2,4-dimethoxyphenyl)-7-[4-(methylsulfonyl)piperazin-1-yl]imidazo[1,2-a]pyridine]: the IC50 in assay [1] (setting [12]) was 1.8 µM; in assay [2] (setting [13]) it was 2.8 µM; in assay [3] (setting [14]) it was 2.1 µM; in assay [4] (setting [15]), 4.7 µM; in assay [5] (setting [16]), 2.2 µM; in assay [6] it was 0.0101 µM.
With `COc1cc(OC)c(-c2cn3ccc(N4CCC(CCN(C)C)CC4)cc3n2)cc1Cl` [Example 94, 2-(1-(2-(5-chloro-2,4-dimethoxyphenyl)imidazo[1,2-a]pyridin-7-yl)piperidin-4-yl)-N,N-dimethylethanamine], the half-maximal inhibitory concentration (IC50) stood at 2.5 µM in assay [1] (setting [12]); 3.6 µM in assay [2] (setting [13]); 2.7 µM in assay [3] (setting [14]); 4.5 µM in assay [4] (setting [15]); 2.3 µM in assay [5] (setting [16]); 0.00887 µM in assay [6].
For the compound `COc1cc(OCCCN(C)C)c(-c2cn3ccc(N4CCN(S(=O)(=O)C(C)C)CC4)nc3n2)cc1Cl` [Example 226, 3-(4-chloro-2-(7-(4-(isopropylsulfonyl)piperazin-1-yl)imidazo[1,2-a]-pyrimidin-2-yl)-5-methoxyphenoxy)-N,N-dimethylpropan-1-amine], the IC50 was 10 µM in assay [1] (setting [7]); 10 µM in assay [2] (setting [8]); 7.8 µM in assay [3] (setting [9]); 8.9 µM in assay [4] (setting [10]); 5.5 µM in assay [5] (setting [11]); 0.0655 µM in assay [6].
Regarding `COc1cc(OC)c(-c2cn3ccc(N4CCC(N)C4)cc3n2)cc1Cl` (centres unmarked) [Example 33, 1-[2-(5-chloro-2,4-dimethoxyphenyl)imidazo[1,2-a]pyridin-7-yl]pyrrolidin-3-amine], the IC50 in assay [1] (setting [12]) came out at 3.1 µM; in assay [2] (setting [13]) it was 3.2 µM; in assay [3] (setting [14]), 3.3 µM; in assay [4] (setting [15]), 2.2 µM; in assay [5] (setting [16]) it was 1.7 µM; in assay [6] it was 0.00704 µM.
As to `COC(=O)Nc1ccn2cc(-c3cc(Cl)c(OC)cc3OC)nc2c1` [Example 183, methyl [2-(5-chloro-2,4-dimethoxyphenyl)imidazo[1,2-a]pyridin-7-yl]-carbamate], the IC50 came to 1.8 µM in assay [1] (setting [12]); 1.8 µM in assay [2] (setting [13]); 2.1 µM in assay [3] (setting [14]); 2 µM in assay [4] (setting [15]); 1.9 µM in assay [5] (setting [16]); 0.0241 µM in assay [6].
On to `COc1cc(OC)c(-c2cn3ccc(N)cc3n2)cc1Cl` [Example 151, 2-(5-chloro-2,4-dimethoxyphenyl)imidazo[1,2-a]pyridin-7-amine], for which the IC50 in assay [1] (setting [12]) is 5.1 µM; in assay [2] (setting [13]), 2.4 µM; in assay [3] (setting [14]) it was 2.3 µM; in assay [4] (setting [15]), 1.9 µM; in assay [5] (setting [16]), 2.9 µM; in assay [6], 0.00827 µM.
Take `COc1cc(OC)c(-c2cn3ccc(N4CCCN(C(=O)OC(C)(C)C)CC4)cc3n2)cc1Cl` [Example 184, tert-butyl 4-[2-(5-chloro-2,4-dimethoxyphenyl)imidazo[1,2-a]pyridin-7-yl]-1,4-diazepane-1-carboxylate]: the IC50 was 3.8 µM in assay [1] (setting [12]); 4.9 µM in assay [2] (setting [13]); 5.7 µM in assay [3] (setting [14]); 2.2 µM in assay [4] (setting [15]); 2.5 µM in assay [5] (setting [16]); 0.0285 µM in assay [6].
As to `COc1cc(OC)c(-c2cn3ccc(N4CCC(CNS(=O)(=O)C5CC5)CC4)cc3n2)cc1Cl` [Example 149, N-((1-(2-(5-Chloro-2,4-dimethoxyphenyl)imidazo[1,2-a]pyridin-7-yl)piperidin-4-yl)methyl)cyclopropanesulfonamide], the IC50 stood at 2.5 µM in assay [1] (setting [12]); 4.8 µM in assay [2] (setting [13]); 2.3 µM in assay [3] (setting [14]); 1.9 µM in assay [4] (setting [15]); 2.4 µM in assay [5] (setting [16]); 0.00672 µM in assay [6].
Turning to `COc1cc(OC)c(-c2cn3ccc(N4CCN(S(=O)(=O)C5CC5)CC4)cc3n2)cc1Cl` [Example 103, 2-(5-chloro-2,4-dimethoxyphenyl)-7-[4-(cyclopropylsulfonyl)piperazin-1-yl]imidazo[1,2-a]pyridine], the IC50 in assay [1] (setting [12]) is 1.3 µM; in assay [2] (setting [13]), 1.6 µM; in assay [3] (setting [14]), 0.55 µM; in assay [4] (setting [15]), 0.61 µM; in assay [5] (setting [16]), 0.7 µM; in assay [6] it was 0.0103 µM.
For `COc1cc(OC)c(-c2cn3ccc(-c4ccc(C(=O)[C@H](C)N)cc4)cc3n2)cc1Cl` [Example 274, (S)-2-amino-1-(4-(2-(5-chloro-2,4-dimethoxyphenyl)imidazo[1,2-a]-pyridin-7-yl)phenyl)propan-1-one hydrochloride], the IC50 came out at 1.2 µM in assay [1] (A549, 72 h); 1.5 µM in assay [2] (setting [8]); 1.6 µM in assay [3] (setting [9]); 1.4 µM in assay [4] (setting [10]); 0.74 µM in assay [5] (setting [11]).
Take `COc1cc(OC)c(-c2cn3ccc(NC(=O)C(N)CCCCN)cc3n2)cc1Cl` (stereo in doubt) [Example 247, (S)-2,6-diamino-N-(2-(5-chloro-2,4-dimethoxyphenyl)imidazo[1,2-a]-pyridin-7-yl)hexanamide]: the IC50 in assay [1] (setting [7]) came out at 10 µM; in assay [2] (setting [8]) it was 10 µM; in assay [3] (setting [9]) it was 10 µM; in assay [4] (setting [10]) it was 10 µM; in assay [5] (setting [11]), 5.7 µM.
Consider `COc1cc(OC)c(-c2cn3ccc(N4CC[C@H](NCc5ccncc5)C4)cc3n2)cc1Cl` [Example 298, (S)-1-(2-(5-chloro-2,4-dimethoxyphenyl)imidazo[1,2-a]pyridin-7-yl)-N-(pyridin-4-ylmethyl)pyrrolidin-3-amine trihydrochloride], for which the IC50 in assay [1] (setting [7]) was found to be 0.67 µM; in assay [2] (setting [8]), 1.4 µM; in assay [3] (setting [9]), 0.5 µM; in assay [4] (setting [10]), 0.84 µM; in assay [5] (setting [11]), 0.79 µM.
As for `CNCC(=O)Nc1ccc(-c2ccn3cc(-c4cc(Cl)c(OC)cc4OC)nc3c2)cc1` [Example 273, N-(4-(2-(5-chloro-2,4-dimethoxyphenyl)imidazo[1,2-a]pyridin-7-yl)phenyl)-2-(methylamino)acetamide hydrochloride], the IC50 in assay [1] (A549, 72 h) is 1.5 µM; in assay [2] (CCD-18Co, 72 h), 1.1 µM; in assay [3] (HCT-116, 72 h), 0.86 µM; in assay [4] (HFL1, 72 h) it was 1.2 µM; in assay [5] (PC-14, 72 h), 1.1 µM.
Regarding `COc1cc(OC)c(-c2cn3ccc(C4=CCN(C(C)=O)CC4)cc3n2)cc1Cl` [Example 120, 1-(4-(2-(5-chloro-2,4-dimethoxyphenyl)imidazo[1,2-a]pyridin-7-yl)-5,6-dihydropyridin-1(2H)-yl)ethanone], the IC50 in assay [1] (setting [12]) amounted to 6.5 µM; in assay [2] (setting [13]) it was 6.8 µM; in assay [3] (setting [14]), 6.6 µM; in assay [4] (setting [15]) it was 7.6 µM; in assay [6], 0.0364 µM.
With `COc1cc(OC)c(-c2cn3ccc(NCCN(C)C)cc3n2)cc1Cl` [Example 83, N^1-(2-(5-chloro-2,4-dimethoxyphenyl)imidazo[1,2-a]pyridin-7-yl)-N^2,N^2-dimethylethane-1,2-diamine], the 50% inhibitory concentration (IC50) in assay [1] (A549, 72 h) worked out at 5.5 µM; in assay [2] (CCD-18Co, 72 h), 7.1 µM; in assay [3] (HCT-116, 72 h), 6.7 µM; in assay [4] (HFL1, 72 h), 2.2 µM; in assay [6], 0.0373 µM.
Turning to `COc1cc(OC)c(-c2cn3ccc(N)cc3n2)cc1Br` [Example 5, 2-(5-bromo-2,4-dimethoxyphenyl)imidazo[1,2-a]pyridin-7-amine], the IC50 came to 3.6 µM in assay [1] (setting [12]); 3.8 µM in assay [2] (setting [13]); 3.1 µM in assay [3] (setting [14]); 2.1 µM in assay [4] (setting [15]); 0.0103 µM in assay [6].

A word on the IC50: it is the concentration that gives 50% inhibition.
